From US6933282B2, “Regulation of tyrosine hydroxylase by GPE” (Neuren Pharmaceuticals Ltd., priority 1998, dated 2005)

Key:
Assay type in all cases: in vivo, rat
[1] = system: tyrosine hydroxylase (TH); assay: Example 4: survival of TH immunopositive nigral neurons after medial forebrain bundle transection; details: lesioned side; daily supranigral GPE 0.3 μg/μl, 1 μl, for two weeks after MFB transection; ipsilateral/contralateral; FIG. 5
Procedure: Adult male Wistar rats (200-220 g) were anaesthetized with 75 mg/kg Nembutal and positioned in a stereotaxic apparatus. Unilateral transection of the medial forebrain bundle which contains the ascending nigral dopaminergic projection fibers was made 1.3 mm rostral to the rostral tip of the SNc using a retractable wire knife (David Kopf Instruments, Tujunga, Calif.). The knife was lowered into the brain using the following coordinates from the atlas of Paxinos and Watson (1986), Sydney: Academic Press: 3.3 mm posterior to Bregma, 2.4 mm lateral from midline, and 8.5 mm ventral from skull, the blade was extended 2.0 mm toward midline, raised 2.5 mm dorsally, retracted and extended again, and then returned 2.5 mm ventrally. The wire blade was retracted and the knife withdrawn. Next, a 22-gauge metal guide cannula was permanently fixed into place supranigrally at 5.0 mm posterior to Bregma, 2.0 mm lateral to midline, and 6.8 mm ventral to skull. […]
Immunopositive cells were counted in the central SNc Counts were made ventral and lateral to the lemniscus medialis, including both the pars compacta and pars reticulata, but excluding the ventral tegmental area in the ventromedial midbrain and the retrorubral field in the caudolateral midbrain. […] To reveal percent survival, percent changes were calculated by dividing the ipsilateral value by contralateral value.

[2] = system: tyrosine hydroxylase (TH); assay: Example 3: TH immunostaining density and TH positive neuron number in SNc after 6-OHDA lesion
Procedure: A paired experimental design was used and the experimenter was blinded to the treatment groups. Eighteen male Wistar rats (50-60 days old, 280-310 g) were used for this study. 6-hydroxy dopamine (6-OHDA) was prepared as 8 μg in a base of 2 μl 0.9% saline containing 1% ascorbic acid. It was administered into the right medial forebrain bundle (MFB) using coordinates of AP+4.7 mm, R 1.6 mm, V−8 mm under anaesthesia of 3% halothane. 6-OHDA was injected into the right MFB using a Hamilton syringe (100 μl with a 30G needle) controlled by a microdialysis infusion pump at an infusion rate of 0.2 μl/minute. The infusion needle was then slowly withdrawn 5 minutes after the infusion. […] Briefly, a guide cannula (21G, 6 mm) was fixed on the top of the dura with coordinates of AP+7.5 mm, R 1.5 mm immediately after the injection of 6-OHDA. Either GPE (3 μg/15 μl) or its vehicle were infused into the right lateral ventricle 2 hours later at an infusion rate of 2 μl/minute. Rats were then housed in a holding room with food and water ad libitum for the next 2 weeks.
The rats were then deeply anaesthetized with an overdose of pentobarbital and transcardially perfused with normal saline followed by 10% buffered formalin. The brains were removed from the skull and kept in the same fixative for the next 48 hours. A standard paraffin tissue preparation was used to process the tissue so that it could be used for immunohistochemistry. Coronal sections (8 μm) were cut using a microtome, and the sections were mounted on chrome alum coated microscopy slides and air-dried. SNc sections used for immunohistochemical staining were deparaffinized, rehydrated and washed in PBS (0.1M). The sections were then pretreated with 1% H2O2 for 20 minutes, washed with 0.1M PBS (3×5 minutes) and incubated with rabbit polyclonal antisera raised against tyrosine hydroxylase (Protos Biotech, USA) diluted 1:500 with 1% goat serum for 48 hours at 4° C. The sections were washed in PBS (3×5 minutes) and incubated with donkey anti-rabbit biotinylated secondary antibody (1:200, Amersham, Life Science) overnight at room temperature. The sections were washed, incubated in streptavidin-biotinylated horseradish peroxidase (1:200, Amersham, Life Science) for 3 hours, washed again in PBS and then reacted in 0.05% 3,3-diaminobenzidine tetrahydrochloride (DAB) and 0.01% H2O2 to produce a brown reaction product. The sections were dehydrated in a graded alcohol series, cleared in xylene and coverslipped with mounting medium.
The average density from the background was also measured. The analyst was blinded to the treatment and control groups. The difference in average density between the background and TH immunostaining was calculated and used for data analysis. […]

[3] = system: tyrosine hydroxylase (TH); assay: Example 2: TH immunopositive neuron count in SNc after 6-OHDA lesion, second set of rats; details: 3 μg GPE 2 hours after 6-OHDA; 2 levels of SNc counted; vs vehicle; FIG. 2
Procedure: (§1) The objective of this experiment was to determine the effects of administering GPE on the expression of tyrosine hydroxylase (TH) in the presence or absence of CNS injury. […] Specifically, 9 pairs of adult male Wistar rats (280-320 g) were prepared under 3% halothane/O2 anaesthesia. The oxygen free radical producing neurotoxin 6-hydroxydopamine (6-OHDA) which produces degeneration of dopamine neurones (8 μg/2 μl) was injected into the median forebrain bundle using a 30 gauge needle (coordinates: anterior-posterior +4.7 mm, right +1.6 mm, vertical −8.5 mm). A guide cannula was placed on the dura 7.5 mm anterior from stereotaxic zero and 1.5 mm from the midline on the right. The rats were left to recover at room temperature. 2 hours after the administration of 6-OHDA the rats were treated, via the guide cannula, with 3μg GPE or vehicle alone (15μl injected with a pump rate of 2 μl/minute, 0.1M acetate buffer [pH6], diluted 10 times in 0.1 bovine serum albumin in 0.1M phosphate buffered saline [PBS][pH7.31]). […]
(§2) The total counts of neurons were compared between the GPE and the vehicle treated group. Data were analysed with paired t-test and presented as mean±sem.
Example 2 was performed using a second set of rats (9 pairs), using the same experimental parameters except that only the immunopositive neurons at 2 levels of the SNc were counted.

[4] = system: tyrosine hydroxylase (TH); assay: Example 1: TH immunopositive neuron count in SNc after 6-OHDA lesion, GPE given 2 hours later; details: lesioned (right) side; 3 μg GPE via guide cannula 2 hours after 6-OHDA; 14 days; 3 levels of SNc; vs vehicle; FIG. 1
Procedure: This experiment was blind with respect to the treatment (with GPE or the vehicle) and with respect to the counting of neurons expressing TH (between sections from animals treated with GPE or vehicle).
as §1, §2

## Gly-Pro-Glu [GPE]
[1]
  percent cell survival of TH immunopositive neurons: increased
[2]; compared to the control group, 6-OHDA lesion
  loss of TH immunopositive neurons in the SNc: prevented the loss
[2]; ipsilateral SNc, GPE intraventricularly 2 hours after 6-OHDA, FIG. 4
  density of TH immunostaining in cytoplasm and processes of neurons: restored
[2]; most caudal level of SNc, GPE 3 μg/15 μl into right lateral ventricle 2 hours after 6-OHDA, 2 weeks, mean±SEM
  neuronal survival (TH immunopositive neurons, R/L ratio): 60±13.0%
[2]; most caudal level of SNc, GPE 3 μg/15 μl into right lateral ventricle 2 hours after 6-OHDA, 2 weeks, mean±SEM, FIG. 3
  restoration in TH immunoreactivity (density of TH immunostaining, R/L ratio): 99.6±27%
[3]
  TH expression (number of TH immunopositive neurons): upregulation of TH expression
[4]
  number of TH immunopositive dopaminergic neurons: increased
